The conditions of data set [1]: cited from earlier work.
A further data set relates to CYP2B6. Details: method as in ref (Hariparsad et al., 2008). The note with it: ref (Hariparsad et al., 2008), cited from earlier work.
In another data set the test system is CYP2C9. Details: method as in ref (Sahi et al., 2009). Particulars: ref (Sahi et al., 2009), cited from earlier work.
Data set [2] has as its system rCYP2C19. Particulars: read-out: rCYP2C19 Km; ref (Giancarlo et al., 2001); (Bajpai et al., 1996); cited from earlier work.
For data set [3], the system named is rCYP2C9. The note with it: read-out: rCYP2C9 Km; ref (Rowland et al., 2008); cited from earlier work.
A short description of the next data set: in vitro. Particulars: human, human liver microsomes.
For data set [4] the following is noted: cited from earlier work. The source holds these as a separate data set.
For data set [5], the system named is CYP3A. The data set can be described thus: in vitro. The note with it: human, cryopreserved human hepatocytes, probe testosterone (6β-hydroxytestosterone formation).
The conditions of data set [6]: cited from earlier work. This is another data set of the same source.
For data set [7] the following is noted: cited from earlier work. This is another data set of the same source.
Data set [8] deals with CYP3A. The note with it: mean of four human hepatocyte donors; three-parameter fit; Indmax = Emax + 1.
Data set [9] relates to rCYP2C9. The experiment in a line: Recombinant enzyme metabolism kinetics, rCYP2C9. The note with it: Calculated from CLiv using retrograde model.
The conditions of data set [10]: cited from earlier work. The source holds these as a separate data set.
Data set [11] deals with CYP3A. Particulars: mean of four human hepatocyte donors; three-parameter fit; Indmax = Emax + 1. This is another data set of the same source.
For data set [12], the system named is rCYP2C19. The experiment in a line: Recombinant enzyme metabolism kinetics, rCYP2C19. The note with it: Calculated from CLiv using retrograde model.
For data set [13] the following is noted: Monoprotic Acid; ref Meta-analysis (Pade and Stavchansky, 1998); (Avdeef et al., 2000); (Taillardat-Bertschinger et al., 2002); (Loeuillet-Ritzler and Faller, 2004); cited from earlier work.
For data set [14], the system named is CYP3A. The data set can be described thus: in vitro. The note with it: human, cryopreserved human hepatocytes.
The test system of another data set is rCYP3A4. Particulars: ref (Cazali et al., 2003), (Huang et al., 2004), cited from earlier work.
For a further data set, the system named is rCYP3A5. The note with it: ref (Huang et al., 2004), cited from earlier work.
The next data set relates to rCYP2C8. Details: method as in ref (Cazali et al., 2003). Particulars: ref (Cazali et al., 2003); cited from earlier work.
The test system of data set [15] is HLM. Details: method as in ref (Pearce et al., 2002). Particulars: Other enzymes were combined; ref (Pearce et al., 2002); cited from earlier work.
For data set [16] the following is noted: Neutral; ref (Zhu et al., 2002); (Lombardo et al., 2000); (Henczi et al., 1995) and 4 others; cited from earlier work.
Another data set concerns rUGT2B7. More on the design: method as in ref (Staines et al., 2004). Particulars: ref (Staines et al., 2004); cited from earlier work.
Data set [17] relates to HLM. The experiment in a line: Additional (unassigned) intrinsic clearance. The note with it: Added to recover degree of auto-induction via enzymes other than CYP3A4.
For data set [18] the following is noted: human, in vivo.

Read-outs that look alike come from different tables or passages of the source.

For the compound `O=C1NC(=O)C(c2ccccc2)(c2ccccc2)N1` [Phenytoin, phenytoin], the CLR in data set [1] (from fe 0.008, ref (Kozelka and Hine, 1943), (Borga et al., 1979)) is reported as 0.015 L/h. Further, the fe in [1] (ref (Kozelka and Hine, 1943), (Borga et al., 1979)) is 0.008. In addition, the CLiv in [1] (ref Meta-analysis (Gugler et al., 1976), (Glazko et al., 1969), (Lund et al., 1974), (Perucca et al., 1978)) was 1.88 L/h. Also, in the data set with CYP2B6, the “CYP2B6 Indmax (Fold, Emax +1)” value is 1.9 Fold. Further, the EC50 with CYP2B6 (read-out: CYP2B6 IndC50) was 15.3 µM; in the data set on CYP2C9 (read-out: CYP2C9 IndC50), 9.8 µM; in the data set with CYP3A [5], 51.3 µM; in the data set with CYP3A [14], 123 µM. In the data set with CYP2C9, the “CYP2C9 Indmax (Fold, Emax +1)” value is 10.7 Fold. Besides, the Km (usually the concentration of substrate that gives half-maximal velocity) in the data set with rCYP2C19 [2] was 36.8 µM; with rCYP2C9 [3], 4.1 µM. For the same compound, the microsomal CLint (usually the rate of metabolic loss divided by the concentration) in the data set “in vitro” is 0.97 µL/min/mg. Also, the “B:P” value in data set [4] (ref (Kurata and Wilkinson, 1974)) is on record as 0.61. Besides, in [6] (ref (Bochner et al., 1973)), the fa is 0.9. Besides, the ka in [6] (ref (Tassaneeyakul et al., 1992)) was 0.53 h⁻¹. In data set [7] (ref Meta-analysis (Odar-Cederlof and Borga, 1974), (Tassaneeyakul et al., 1992), (Ducharme et al., 1995) and 3 others), the fu was 0.10. Moreover, in the data set on CYP3A [8], the “Activity Indmax” value is on record as 13.6 fold. In addition, in the data set with rCYP2C9 [9], the “rCYP2C9 Vmax” value is recorded as 0.24 pmol/min/pmol. For the same compound, the “Vss (Minimal PBPK)” value in [10] (ref Meta-analysis (Gugler et al., 1976), (Odar-Cederlof and Borga, 1974), (Glazko et al., 1969), (Lund et al., 1974), (Perucca et al., 1978)) is reported as 0.57 L/kg. The “mRNA Indmax” value in the data set with CYP3A [11] is reported as 24.5 fold. In the data set on rCYP2C19 [12], the “rCYP2C19 Vmax” value is given as 1.53 pmol/min/pmol. Also, in data set [13], the “pKa(s)” value was 8.15.

For `NC(=O)N1c2ccccc2C=Cc2ccccc21` [Carbamazepine, carbamazepine], the CLR in data set [1] (parent carbamazepine, ref (Kim et al., 2005)) was 0.0084 L/h. The Km was 180 µM with rCYP3A4 (read-out: rCYP3A4 Km), 332 µM in the data set on rCYP3A5 (read-out: rCYP3A5 Km), 742 µM with rCYP2C8 and 25.4 µM in the data set on rUGT2B7. Further, the “rCYP3A4 Vmax” value in the data set with rCYP3A4 is 0.72 pmol/min/pmol. Also, in the data set with rCYP3A5, the “rCYP3A5 Vmax” value is reported as 1.44 pmol/min/pmol. Besides, the “rCYP2C8 Vmax” value in the data set with rCYP2C8 is 0.03 pmol/min/pmol. The “Add HLM CLint” value with HLM [15] is listed as 0.255 µL/min/mg. Moreover, the log partition coefficient (logP) (in general, the decadic logarithm of the partition coefficient of the neutral form, usually between octanol and water) in data set [16] was 2.22. Further, in the data set with rUGT2B7, the “rUGT2B7 Vmax” value was 4.18 pmol/min/pmol. The “B:P” value in data set [4] (ref Meta-analysis (Bonneton et al., 1992), (de Groot et al., 1984)) is 1.07. Further, the EC50 was 59.1 µM with CYP3A [5] and 58.7 µM with CYP3A [14]. Also, the ka in [6] (ref (Geradin et al., 1976), (Grimsley et al., 1991), (Olling et al., 1999), (Wong et al., 1983)) was 0.5 h⁻¹. For the same compound, the fa in data set [6] (ref (Tchaparian et al., 2008), (Faigle and Feldmann, 1975), (Levy et al., 1975)) was 0.84. Moreover, in data set [7] (ref Meta-analysis (Grimsley et al., 1991), (Di Salle et al., 1974), (Rawlins et al., 1975) and 4 others), the fu is on record as 0.25. For the same compound, the “Activity Indmax” value with CYP3A [8] turned out to be 16.6 fold. The “Add rCYP CLint” value in the data set with HLM [17] came to 0.010 µL/min/pmol. For the same compound, the “Vss (Minimal PBPK)” value in [10] (ref (Ramsay et al., 1990)) is given as 0.78 L/kg. For the same compound, in the data set on CYP3A [11], the “mRNA Indmax” value is reported as 21.9 fold.

Consider `CCC1(c2ccccc2)C(=O)NC(=O)NC1=O` [Phenobarbital, phenobarbital], for which, in data set [1] (in vivo), the CLR was 0.07 L/h and the fe is recorded as 0.24. Besides, in data set [6] (ref (Varma et al., 2012)), the fa was 1. The “Activity Indmax” value in the data set on CYP3A [8] was 21.1 fold. Besides, the “Vss (Minimal PBPK)” value in data set [10] (in vivo) is 0.54 L/kg. Also, in the data set with CYP3A [11], the “mRNA Indmax” value is 44.2 fold. Moreover, in [18], the ka is 2 h⁻¹.

The values above are taken from paper PMC4885489, “Prediction of Drug-Drug Interactions Arising from CYP3A induction Using a Physiologically Based Dynamic Model” (Drug Metabolism and Disposition, 2016).
